Assay results taken from US9440967B2, “1H-pyrrolo [2, 3 -B] pyridine derivatives and their use as radical quenchers” (Arizona Board of Regents on Behalf of Arizona State …, priority 2012, dated 2016).
Counter-ions that a name gives are not always drawn.

How the values were obtained:
CEM cells [1] = assay: Trypan blue cell viability assay of DEM-treated cells; type: cell-based, Human; conditions: CEM cells pretreated 16 h, then 5 mM DEM 5.5 h; FIG. 5
Method: FIG. 5. Trypan blue exclusion assay of CEM cells treated with test compounds for 16 h before exposure to 5 mM diethyl maleate for 5.5 h. At the time of assay, >80% of the DEM-treated cells were trypan blue positive, whereas in the non-DEM treated control, >95% of the cells were viable. Cell viability was expressed as the percentage of control. Results are an average of three independents trials. α-TOH is α-tocopherol.
Cell viability determined by trypan blue exclusion assay: This technique was used to assess the cytoprotective effects of the invention compounds in cultured cells pharmacologically treated to induce cell death by GSH depletion. DEM was used to deplete cellular GSH and induce oxidative stress. The viability of DEM-treated CEM cells was determined by their ability to exclude the dye trypan blue. Viable cells exclude trypan blue; whereas, non-viable cells take up the dye and stain blue. Briefly, CEM lymphoblasts (CCL-119) were grown in RPMI 1640 medium (GIBCO, Grand island, NY, USA) supplemented with 10% fetal calf serum, 2 mM glutamine (HyClone, South Logan, Utah, USA), 1% penicillin-streptomycin mix (Cellgro, Manassas, Va., USA). Cells were seeded at a density of 5×10^5 cells/mL and treated with different concentrations of the invention compounds. Cells were incubated at 37° C. in a humidified atmosphere of 5% CO2 in air for 16 hours. After pre-incubation, the cells were treated with 5 mM DEM for 5.5 h. Cell viability was determined by staining cells with 0.4% trypan blue using a hemacytometer. At least 500 cells were counted for each experimental group. At the time of assay, >80% of DEM-treated cells were trypan blue positive; whereas, in non-DEM treated control cell cultures>95% cells were viable. Cell viability was expressed as the percentage of control. Data are expressed as means±S.E.M (n=3).

CEM cells [2] = assay: Reactive oxygen species (ROS) assay, DCFH-DA flow cytometry, glutathione depleted with diethyl maleate; type: cell-based, Human; conditions: CEM cells pretreated 16 h with 1, 2.5 and 5 μM compound, then 5 mM DEM 50 min, FIG. 1; for protection against ROS production (DCF fluorescence): compared with α-tocopherol
Method: FIG. 1. Representative flow cytometric histograms overlay showing ROS production in CEM cells. Following pretreatment with the indicated compounds (1, 2.5 and 5 μM) for 16 h, the cells were treated with 5 mM diethyl maleate (DEM) for 50 min to deplete glutathione. The cells were washed in phosphate-buffered saline, and suspended in phosphate-buffered saline containing 20 mM glucose. Cells were loaded with 10 μM dichlorodihydrofluoresceindiacetate (DCFH-DA) for 20 min, and the green fluorescence (DCF) was measured by flow cytometry using the FL1-H channel. […] A total of 10000 events were recorded for each sample and analyzed with the CellQuest software (BD Biosciences). Increased DCF fluorescence, a measure of intracellular oxidation and ROS production, was determined by a shift in DCF fluorescence to the right on the x-axis of the FACS histogram. […] Data are expressed as the mean±SEM (n=3). α-TOH is α-tocopherol.
Cellular ROS production can be monitored using 2′,7′-dichlorodihydrofluorescein diacetate (DCFH-DA) (LeBel et al. (1992) Chem. Res. Toxicol. 5, 227-231) (Molecular Probes, Eugene, Oreg., USA), a membrane permeable and oxidant-sensitive fluorescent dye. DCFH-DA is a non-fluorescent derivative of fluorescein that emits fluorescence after being oxidized by hydrogen peroxide and other ROS. The emitted fluorescence is directly proportional to the concentration of hydrogen peroxide. DCFH-DA is nonionic and nonpolar and is easily taken up by cells. Once inside the cell, DCFH-DA is hydrolyzed by cellular esterases to non-fluorescent DCFH which traps the dye in the cell. In the presence of ROS including hydrogen peroxide, DCFH is oxidized to the highly fluorescent compound dichlorofluorescein (DCF). The intracellular DCF fluorescence is used as an index of cellular ROS production.
Cellular oxidative stress was induced by pharmacological depletion of glutathione (GSH) using the chemical diethylmaleate (DEM). ROS production was assessed by monitoring DCF fluorescence. Leukemic CEM cells (ATCC®, catalogue number CRL-2264) were cultured in RPMI (GIBCO, Grand island, NY, USA) with 10% FCS, 2 mM glutamine (HyClone, South Logan, Utah, USA) and 1% penicillin-streptomycin mix antibiotics (Cellgro, Manassas, Va., USA) supplements. CEM cells (5×10^5 cell/mL) were plated (1 mL) in 24-well plate and treated with the invention compounds (final concentration 1, 2.5, and 5 μM), and incubated at 37° C., 5% CO2 for 16 hours. The compounds tested were prepared by first making stock solutions (2.5 mM) in dimethylsulfoxide (DMSO). Cells were treated with 5 mM DEM for 50 minutes and collected by centrifugation at 300×g for 3 min and then washed twice with Hanks' Balanced Salt Solution (HSSB) buffer (Sigma, St. Louis, Mo. USA). Cells were re-suspended in HSSB buffer+20 mM glucose and incubated at 37° C. in the dark for 20 min with 10 μM DCFH-DA. Cells were collected by centrifugation at 300×g for 3 min and then washed twice with HSSB buffer. The samples were analyzed immediately by flow cytometry (Becton-Dickinson FACS Caliber), (Cell Quest software, BD Biosciences) using 488 nm excitation laser and FL1-H channel 538 nm emission filter. In each analysis, 10,000 events were recorded after cell debris were electronically gated out. Results obtained were verified by repeating experiments N=3 independent experiments. Authentic hydrogen peroxide was used as a positive control.

CEM leukemia cells [3] = assay: Lipid peroxidation, C11-BODIPY581/591 oxidation in cell culture (FACS); type: cell-based, Human; conditions: CEM cells pretreated 16 h with 2.5 and 5 μM compound, then 5 mM DEM 90 min; compared with α-tocopherol; FIG. 2
Method: FIG. 2. Comparison of the lipid peroxidation in CEM leukemia cells depleted of glutathione detected by utilizing the oxidation-sensitive fatty acid probe C-11 BODIPY^581/591 using flow cytometry. Increased C-11 BODIPY-green fluorescence (oxidized form), a measure of intracellular lipid peroxidation, was determined by increasing the geometric mean fluorescence intensity (GMFI) of C-11 BODIPY-green relative to the untreated control. A bar graph representing the percentage of the geometric mean fluorescence intensity (GMFI) of C-11 BODIPY-green fluorescence relative to a treated control is shown. Data are expressed as the mean±SEM (n=3). α-TOH is α-tocopherol.
Lipid peroxidation in CEM leukemia cells was detected by utilizing the oxidant-sensitive lipophilic probe C11 BODIPY^581/591. Briefly, CEM cells (5×10^5 cell/mL) were treated with the test compounds at final concentrations of 2.5 and 5 μM, and incubated at 37° C. for 16 h in a humidified atmosphere containing 5% CO2 in air. Cells were treated with 1 μMC11 BODIPY^581/591 in phenol red-free RPMI-1640 media and incubated at 37° C. in the dark for 30 minutes. The cells were washed twice with phosphate buffered saline and oxidative stress was induced with 5 mM DEM in phenol red-free RPMI-1640 media for 90 minutes. Treated cells were collected by centrifugation at 300×g for 3 minutes and then washed twice with phosphate buffered saline. Cells were re-suspended in 250 μL of phosphate buffered saline and were analyzed by FACS (FACS Calibur flow cytometer, Becton Dickinson) to monitor the change in intensity of the C11 BODIPY^581/591-green (oxidized) fluorescence signal. A total of 10000 events were recorded for each sample and analyzed with the CellQuest software (BD Biosciences). The results were verified by repeating the experiments in duplicate. Results are expressed as the relative percentage of treated control (DEM).

CEM leukemia cells [4] = assay: Mitochondrial membrane potential (Δψm) assay, TMRM staining (FACS); type: cell-based, Human; conditions: CEM cells pretreated 16 h, then 5 mM DEM 120 min, 250 nM TMRM; FIG. 3 and 4
Method: FIG. 3. Representative flow cytometric two-dimensional color density dot plot analyses of mitochondrial membrane potential (ΔΨm) in leukemia CEM cells stained with 250 nM TMRM and analyzed using FL2-H channel as described in the experimental section. The percentage of cells with intact ΔΨm is indicated in the top right quadrant of captions. Representative example from at least three independent experiments. A total of 10000 events were recorded for each sample and analyzed with the CellQuest software (BD Biosciences).
FIG. 4. A bar graph representation of means the percentage of cells with intact ΔΨm recorded by FACS. Data are expressed as means±SEM of three independent experiments run in duplicate.
Measurement of Mitochondrial Membrane Potential (Δψm) (FACS). For the determination of Δψm, CEM leukemia cells were pre-treated with or without the test compounds for 16 h. The cells were treated with 5 mM DEM for 120 minutes, collected by centrifugation at 300×g for 3 minutes and then washed twice with phosphate buffered saline. The cells were re-suspended in HSSB buffer and incubated at 37° C. in the dark for 15 minutes with 250 nM TMRM (a cationic dye which accumulates within mitochondria in accordance with the Δψm Nernst potential). Cells were collected by centrifugation at 300×g for 3 minutes and then washed twice with phosphate buffered saline. The samples were analyzed immediately by flow cytometry using 488 nm excitation laser and the FL2-H channel. The results obtained were verified in three independent experiments. The protonophore FCCP (10 μM) was used to dissipate the chemiosmotic proton gradient […] and served as a control for loss of Δψm. […] The results were verified by repeating the experiments in duplicate.

[5] = James et al. (2005) J Biol. Chem. 280, 21295-21312; cited from earlier work

melting point [°C]	Compound	cytoprotection (cell viability, trypan blue exclusion) (CEM cells [1])	intensity of DCF fluorescence (CEM cells [2])	protection against ROS production (DCF fluorescence) (CEM cells [2])	protection against lipid (membrane) peroxidation (C11-BODIPY-green fluorescence) (CEM leukemia cells [3])	prevention of loss of Δψm (mitochondrial depolarization) (CEM leukemia cells [4])	calculated octanol-water partition coefficient [5]
–	CCCCCCCCCCc1nc2c(c(C)c1OC(C)=O)CCN2C [Compound 2b, 1,4-Dimethyl-6-decyl-2,3-dihydro-1H-pyrrolo[2,3-b]pyridin-5-yl acetate]	more effective in cytoprotection than was α-TOH	significant decrease in the intensity of DCF fluorescence in a dose-dependent manner	significantly better protection than α-tocopherol	results comparable to α-TOH	the most effective in preventing mitochondrial depolarization	–
–	CCCCCCCCCCCCCCCCc1nc2c(c(C)c1OC(C)=O)CCN2C [Compound 2c, 1,4-Dimethyl-6-hexadecyl-2,3-dihydro-1H-pyrrolo[2,3-b]pyridin-5-yl acetate]	–	–	intermediate protection	Reduced protection	less effective in preventing mitochondrial depolarization	–
43 to 45	CCCCCCCCCCCCCCCCc1cc(C)c2c(n1)N(C)CC2 [Example 10, 1,4-Dimethyl-6-hexadecyl-2,3-dihydro-1H-pyrrolo[2,3-b]pyridine]	–	–	–	–	–	–
–	CCCCCCCCCCc1nc2c(c(C)c1O)CCN2C [Compound 1b, 1,4-Dimethyl-6-decyl-2,3-dihydro-1H-pyrrolo[2,3-b]pyridin-5-ol trifluoro acetic acid salt]	more effective in cytoprotection than was α-TOH	significant decrease in the intensity of DCF fluorescence in a dose-dependent manner	significantly better protection than α-tocopherol	significantly better protection than was achieved with α-tocopherol	the most effective in preventing mitochondrial depolarization	–
–	CCCCCc1nc2c(c(C)c1O)CCN2C [Compound 1a, 1,4-Dimethyl-6-pentyl-2,3-dihydro-1H-pyrrolo[2,3-b]pyridin-5-ol trifluoroacetic acid salt]	–	–	reduced protection	no protection	less effective in preventing mitochondrial depolarization	–
–	COC1=C(OC)C(=O)C(C/C=C(\C)CC/C=C(\C)CC/C=C(\C)CC/C=C(\C)CC/C=C(\C)CC/C=C(\C)CC/C=C(\C)CC/C=C(\C)CC/C=C(\C)CCC=C(C)C)=C(C)C1=O [coenzyme Q10]	–	–	–	–	–	> 10^20
–	CCCCCCCCCCCCCCCCc1nc2c(c(C)c1O)CCN2C [Compound 1c, 1,4-Dimethyl-6-hexadecyl-2,3-dihydro-1H-pyrrolo[2,3-b]pyridin-5-ol trifluoroacetic acid salt]	–	–	intermediate protection	Reduced protection	less effective in preventing mitochondrial depolarization	–
–	Cc1c(C)c2c(c(C)c1O)CC[C@@](C)(CCC[C@H](C)CCC[C@H](C)CCCC(C)C)O2 [α-tocopherol, reference compound]	significantly reduced cell death	–	–	–	–	–
–	CCCCCc1nc2c(c(C)c1OC(C)=O)CCN2C [Compound 2a, 1,4-Dimethyl-6-pentyl-2,3-dihydro-1H-pyrrolo[2,3-b]pyridin-5-yl acetate]	–	–	reduced protection	no protection	less effective in preventing mitochondrial depolarization	–
